# Entries after “also recorded” stand apart in the source; their conditions may differ.
# Tests used:
# [1] = target: T1, trypsin-like site of 26S proteasomes (Oryctolagus cuniculus, UniProt G1SWK8); assay: Inhibition of purified 26S proteasomes, substrate Ac-RLR-amc; format: biochemical, rabbit; conditions: 26S proteasomes from rabbit muscles
# T1 construct: IC50 for sites in 26S proteasomes: Tr-L; other: purified 26S proteasomes; other: 26S proteasomes from rabbit muscles
# T1 sequence (G1SWK8 1-271): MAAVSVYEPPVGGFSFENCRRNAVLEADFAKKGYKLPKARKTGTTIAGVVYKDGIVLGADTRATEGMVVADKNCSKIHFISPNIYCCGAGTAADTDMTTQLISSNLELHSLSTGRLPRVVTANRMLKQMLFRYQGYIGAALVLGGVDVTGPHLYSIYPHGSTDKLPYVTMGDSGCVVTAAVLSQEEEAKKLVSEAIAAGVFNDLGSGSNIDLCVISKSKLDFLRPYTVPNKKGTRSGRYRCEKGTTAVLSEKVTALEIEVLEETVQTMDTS
# [2] = target: T2, trypsin-like sites (β2) of proteasome in MM cells (Homo sapiens, UniProt Q99436); assay: PROTEASOMEGLO assay of proteasome inhibition in MM cells; format: cell-based; conditions: NCI-H929 cells treated overnight
# T2 construct: endogenous in cells; host or cells: NCI-H929, RPMI-8226 and other MM cell lines
# T2 sequence (Q99436 44-277): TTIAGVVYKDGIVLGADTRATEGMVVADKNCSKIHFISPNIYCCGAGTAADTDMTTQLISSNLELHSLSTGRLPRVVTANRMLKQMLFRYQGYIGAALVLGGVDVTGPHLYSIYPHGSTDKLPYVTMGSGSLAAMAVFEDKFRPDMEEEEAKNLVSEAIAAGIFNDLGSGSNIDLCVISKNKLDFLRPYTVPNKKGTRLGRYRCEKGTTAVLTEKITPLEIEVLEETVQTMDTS
# Procedure: Proteasome inhibition in MM cells was measured with luminogenic substrates using PROTEASOMEGLO assay (Promega). […] An aliquot of culture was pelleted and medium was removed and replaced with PBS. The resulting cell suspension was mixed with luminogenic substrates in the manufacturer-provided lysis/assay buffer. After 3 minutes mixing on an orbital shaker, the plate was incubated in the dark for additional 17 minutes, followed by the measurements of the luminescence, performed in triplicate for each substrate/data point. Data were analyzed as for purified proteasomes. […] Cells (1×10^6 per well of a 6-well plate) were incubated with the inhibitors for 4 hours at 37° C. and this was followed by a 2 hour incubation with 5 μM BODIPY-TMR-epoxomicin. Subsequently, the medium was removed and the cells were washed with PBS and harvested. […] The supernatant was collected and the protein concentration was determined by the Bradford assay, and used to normalize gel loading. The samples were analysed by SDS-PAGE and fluorescent densitometry as described for competition experiment in cell lysates. IC50 values were calculated from three independent experiments using […] PRISM software.
# [3] = system: β2 and β2i sites; assay: MV-151 label-competition in extracts of RPMI-8226 MM cells; format: biochemical; conditions: extracts of RPMI-8226 cells, MV-151 probe
# Source text: Multiple myeloma cells express constitutive proteasomes and immunoproteasomes, and substrates used for the measurement of activity were cleaved by both. To determine whether there were any differences in inhibition of constitutive proteasomes or immunoproteasomes by NC-002, NC-012, and NC-022, the fluorescent activity-based probe MV-151 (Verdoes, et al. (2006) Chem. Biol. 13:1217-1226) was used in a label-competition experiment. Extracts of RPMI-8226 MM cells (which express more immunoproteasomes than NCI-H929 cells) were treated first with the NC inhibitors and then with the MV-151 probe. This was followed by fractionation on SDS-PAGE to separate proteasome subunits and imaging to reveal those subunits labeled by the probe (i.e., unmodified by the inhibitors).
structure (smiles),measurement,setting,value
"CC(=O)N[C@@H](CCCNC(=N)N)C(=O)N[C@@H](CC(C)C)C(=O)N[C@@H](CCCNC(=N)N)C(=O)[C@@]1(C)CO1 [NC-012, Ac-Arg-Leu-Arg-ek]",proteasome inhibitory potential on purified 26S proteasomes,[1],potent and specific inhibitors of the trypsin-like sites; also recorded: most potent and specific in the series
same,inhibition of trypsin-like activity in live cells,[2],much higher concentrations
same,inhibition of constitutive (β2) versus immunoproteasome (β2i) trypsin-like sites,[3],equipotent inhibitors of the trypsin-like sites of constitutive and immunoproteasomes
